Reference: ChEMBL document CHEMBL5465560, “Selectivity Literature for EUbOPEN Chemogenomic Library” (2024)

Tests used:
[1] = molecular target: T1, cGMP-dependent protein kinase 1 (Homo sapiens) (UniProt Q13976); test: Selectivity interaction (KinomeScan (DiscoverX)) EUB0001079a PRKG1; settings: at 1 µM
T1 sequence (whole entry): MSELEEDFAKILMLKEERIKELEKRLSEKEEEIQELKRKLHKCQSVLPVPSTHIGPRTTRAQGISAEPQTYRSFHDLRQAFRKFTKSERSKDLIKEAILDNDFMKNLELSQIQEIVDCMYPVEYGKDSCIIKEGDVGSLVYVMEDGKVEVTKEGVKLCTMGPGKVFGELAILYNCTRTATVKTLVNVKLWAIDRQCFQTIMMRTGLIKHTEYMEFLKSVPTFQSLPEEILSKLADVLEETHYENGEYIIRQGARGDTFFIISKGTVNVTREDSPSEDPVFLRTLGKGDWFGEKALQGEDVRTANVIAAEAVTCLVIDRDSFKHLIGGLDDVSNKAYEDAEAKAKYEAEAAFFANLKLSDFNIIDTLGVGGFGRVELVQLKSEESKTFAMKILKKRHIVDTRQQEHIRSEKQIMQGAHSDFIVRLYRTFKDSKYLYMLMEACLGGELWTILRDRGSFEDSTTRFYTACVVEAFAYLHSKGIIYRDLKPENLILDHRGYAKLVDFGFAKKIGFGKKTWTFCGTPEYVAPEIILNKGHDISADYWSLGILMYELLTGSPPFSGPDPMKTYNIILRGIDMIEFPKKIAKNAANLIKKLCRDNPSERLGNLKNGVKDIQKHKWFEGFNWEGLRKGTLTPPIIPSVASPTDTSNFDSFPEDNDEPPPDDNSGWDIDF

[2] = molecular target: T2, Serine/threonine-protein kinase Nek9 (Homo sapiens) (UniProt Q8TD19); test: Selectivity interaction (SelectScreen profiling (Invitrogen)) EUB0000607a NEK9; settings: at 2 µM
T2 sequence (whole entry): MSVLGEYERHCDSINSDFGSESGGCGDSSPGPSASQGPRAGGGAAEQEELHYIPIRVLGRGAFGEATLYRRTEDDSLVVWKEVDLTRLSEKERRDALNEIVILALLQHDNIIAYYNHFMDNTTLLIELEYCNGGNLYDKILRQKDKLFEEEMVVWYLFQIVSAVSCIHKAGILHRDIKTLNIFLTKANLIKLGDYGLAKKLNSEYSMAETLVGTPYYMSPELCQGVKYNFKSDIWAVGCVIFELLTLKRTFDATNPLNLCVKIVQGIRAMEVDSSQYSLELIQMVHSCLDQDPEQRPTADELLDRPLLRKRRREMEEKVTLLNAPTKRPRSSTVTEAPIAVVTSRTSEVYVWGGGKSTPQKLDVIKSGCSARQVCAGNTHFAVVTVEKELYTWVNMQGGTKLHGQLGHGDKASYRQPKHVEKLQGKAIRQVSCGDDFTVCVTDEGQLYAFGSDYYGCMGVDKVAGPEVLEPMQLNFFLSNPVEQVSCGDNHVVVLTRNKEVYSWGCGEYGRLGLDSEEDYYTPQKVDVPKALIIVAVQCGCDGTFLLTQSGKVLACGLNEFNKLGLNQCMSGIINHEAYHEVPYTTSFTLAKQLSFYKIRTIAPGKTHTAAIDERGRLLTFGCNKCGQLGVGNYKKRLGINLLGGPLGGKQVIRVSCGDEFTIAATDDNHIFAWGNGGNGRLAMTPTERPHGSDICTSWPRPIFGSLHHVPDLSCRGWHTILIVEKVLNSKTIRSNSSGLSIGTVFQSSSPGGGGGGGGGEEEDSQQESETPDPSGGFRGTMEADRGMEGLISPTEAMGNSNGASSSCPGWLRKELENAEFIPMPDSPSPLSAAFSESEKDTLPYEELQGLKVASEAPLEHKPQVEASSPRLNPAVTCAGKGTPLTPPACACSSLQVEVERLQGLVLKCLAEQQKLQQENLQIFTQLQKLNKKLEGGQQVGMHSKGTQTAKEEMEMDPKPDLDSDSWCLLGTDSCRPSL

[3] = molecular target: Mitogen-activated protein kinase kinase kinase 10 (Homo sapiens) (UniProt Q02779); settings: at 10 µM
Sequence of Mitogen-activated protein kinase kinase kinase 10 (Homo sapiens) (Q02779 whole entry, looked up): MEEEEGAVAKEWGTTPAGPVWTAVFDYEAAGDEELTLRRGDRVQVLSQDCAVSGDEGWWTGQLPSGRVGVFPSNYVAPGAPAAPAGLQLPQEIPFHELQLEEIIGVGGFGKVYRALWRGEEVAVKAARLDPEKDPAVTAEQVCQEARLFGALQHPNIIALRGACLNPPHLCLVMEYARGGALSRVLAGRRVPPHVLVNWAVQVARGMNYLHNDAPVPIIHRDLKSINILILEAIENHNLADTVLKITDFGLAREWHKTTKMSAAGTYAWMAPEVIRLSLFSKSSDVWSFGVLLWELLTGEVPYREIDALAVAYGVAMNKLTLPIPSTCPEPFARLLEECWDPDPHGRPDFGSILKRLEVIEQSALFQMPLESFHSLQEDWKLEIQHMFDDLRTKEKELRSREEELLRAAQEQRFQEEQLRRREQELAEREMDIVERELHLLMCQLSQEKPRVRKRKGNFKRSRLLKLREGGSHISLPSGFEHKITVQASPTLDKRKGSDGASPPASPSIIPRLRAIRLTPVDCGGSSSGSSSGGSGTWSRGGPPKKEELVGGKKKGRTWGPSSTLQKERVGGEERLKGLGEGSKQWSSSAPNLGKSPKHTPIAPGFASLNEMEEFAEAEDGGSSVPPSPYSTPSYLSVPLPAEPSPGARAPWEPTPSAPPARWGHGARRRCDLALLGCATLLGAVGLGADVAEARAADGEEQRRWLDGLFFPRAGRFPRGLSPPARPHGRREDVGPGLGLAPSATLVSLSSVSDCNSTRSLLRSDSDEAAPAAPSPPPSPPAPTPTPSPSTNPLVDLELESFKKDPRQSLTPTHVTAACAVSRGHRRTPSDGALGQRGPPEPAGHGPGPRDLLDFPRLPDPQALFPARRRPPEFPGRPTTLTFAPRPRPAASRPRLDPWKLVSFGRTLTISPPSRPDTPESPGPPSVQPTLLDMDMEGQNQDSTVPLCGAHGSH

**Q.** For Nc1cnc(N2CCc3cc(S(=O)(=O)Nc4c(F)cc(Cl)cc4F)cc(N4CCCC4=O)c32)nc1 [TP-020n], which % of control [1] is on record?
**A.** Its % of control is 97%.

**Q.** How did the % of inhibition [2] turn out when CNC(=O)Nc1ccc(-c2nc(N3CC4CCC(C3)O4)c3cnn(C4CCC5(CC4)OCCO5)c3n2)cc1 was run?
**A.** Its % of inhibition is -2%.

**Q.** Which % of control [3] does the source give for Cc1cc([C@@H](C)Nc2ccccc2C(=O)O)c2nc(N3CCOCC3)cc(=O)n2c1 [AZD-6482] here?
**A.** The % of control was 96%.
